From ChEMBL document CHEMBL1201862, “PubChem BioAssay data set” (2004)
The source made the active and inactive calls.

Columns and labels:
[1] = target: T1, Heat shock factor protein 1 (Mus musculus, UniProt P38532); experiment: decrease of HSF1-responsive luciferase luminescence – cell-based, NIH3T3, dose retest, confirmation (AID 2382); assay type: functional;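 note: NIH3T3 fibroblasts with HSF1-driven luciferase reporter stressed by proteasome inhibitor MG132; luminescence from HSF1-driven luciferase expression after 8 hours of MG132 stress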
T1 sequence (P38532 whole entry): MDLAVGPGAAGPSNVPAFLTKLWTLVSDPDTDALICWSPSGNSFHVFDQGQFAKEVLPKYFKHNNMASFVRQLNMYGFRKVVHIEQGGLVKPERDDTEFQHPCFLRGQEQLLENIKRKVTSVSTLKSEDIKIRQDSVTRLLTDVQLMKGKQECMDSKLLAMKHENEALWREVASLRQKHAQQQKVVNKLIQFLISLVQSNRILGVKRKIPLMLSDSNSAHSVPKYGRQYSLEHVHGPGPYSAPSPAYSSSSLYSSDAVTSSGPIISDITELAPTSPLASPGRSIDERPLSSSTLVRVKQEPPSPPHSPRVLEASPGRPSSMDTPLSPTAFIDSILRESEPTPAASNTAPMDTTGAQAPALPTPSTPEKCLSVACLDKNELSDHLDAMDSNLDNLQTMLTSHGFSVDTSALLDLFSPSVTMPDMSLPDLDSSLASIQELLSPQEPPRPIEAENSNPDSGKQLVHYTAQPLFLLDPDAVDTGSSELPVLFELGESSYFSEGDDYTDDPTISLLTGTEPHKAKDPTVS

[2] = luciferase reporter signal suppression in cells – H4 neuroglioma cells, luminescence, dose response (AID 1990); assay type: functional, cell-based
[3] = Luminescence Cell-Based Dose Response HTS to Identify Inhibitors of 5'UTR Stem-Loop Driven Prion Protein mRNA Translation in H4 Neuroglioblastoma Cells. [Related pubchem assays: 1827 (Project Summary), 1813 (Primary HTS)]; assay type: functional
[4] = alpha-synuclein stem-loop luciferase translation blockers – H4 neuroglioma cells, luminescence, confirmation (AID 1988); assay type: functional, cell-based
[5] = target: Cytochrome P450 2C9 (Homo sapiens, UniProt P11712)
Sequence of Cytochrome P450 2C9 (P11712 whole entry): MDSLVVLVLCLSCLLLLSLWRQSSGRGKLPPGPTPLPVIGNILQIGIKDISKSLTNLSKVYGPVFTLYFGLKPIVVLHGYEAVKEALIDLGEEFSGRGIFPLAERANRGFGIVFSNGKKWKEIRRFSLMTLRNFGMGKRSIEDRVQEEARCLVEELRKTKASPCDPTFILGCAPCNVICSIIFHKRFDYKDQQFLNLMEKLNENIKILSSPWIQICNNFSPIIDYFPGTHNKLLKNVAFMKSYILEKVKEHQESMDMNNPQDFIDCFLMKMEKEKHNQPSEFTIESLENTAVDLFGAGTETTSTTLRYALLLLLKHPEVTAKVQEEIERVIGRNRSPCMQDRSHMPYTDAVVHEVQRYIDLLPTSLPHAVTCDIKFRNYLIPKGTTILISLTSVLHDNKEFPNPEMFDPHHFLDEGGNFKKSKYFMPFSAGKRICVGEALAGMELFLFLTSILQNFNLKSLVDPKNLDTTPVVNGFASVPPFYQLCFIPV

[6] = target: Cytochrome P450 2D6 (Homo sapiens, UniProt P10635);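 note: CYP2D6 member of a cytochrome P450 panel assay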
Sequence of Cytochrome P450 2D6 (P10635 whole entry): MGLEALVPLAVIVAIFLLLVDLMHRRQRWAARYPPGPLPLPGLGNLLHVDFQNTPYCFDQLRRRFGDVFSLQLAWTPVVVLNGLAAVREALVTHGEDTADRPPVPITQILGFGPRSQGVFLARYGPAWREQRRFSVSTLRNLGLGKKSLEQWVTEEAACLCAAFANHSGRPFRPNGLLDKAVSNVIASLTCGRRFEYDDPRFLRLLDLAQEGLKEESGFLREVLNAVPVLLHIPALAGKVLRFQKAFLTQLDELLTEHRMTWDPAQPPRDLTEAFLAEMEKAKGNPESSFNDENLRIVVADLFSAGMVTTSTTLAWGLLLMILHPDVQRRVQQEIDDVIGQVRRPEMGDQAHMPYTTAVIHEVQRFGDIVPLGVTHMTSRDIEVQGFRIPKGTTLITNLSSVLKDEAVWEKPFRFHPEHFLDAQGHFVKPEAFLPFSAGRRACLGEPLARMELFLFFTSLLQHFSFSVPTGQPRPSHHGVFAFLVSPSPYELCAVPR

[7] = target: Cytochrome P450 2C19 (Homo sapiens, UniProt P33261); experiment: Cytochrome panel assay with activity outcomes. Panel member name: p450-cyp2c19 Compounds with AC50 equal or less than 10 uM are considered active; assay type: functional
Sequence of Cytochrome P450 2C19 (P33261 whole entry): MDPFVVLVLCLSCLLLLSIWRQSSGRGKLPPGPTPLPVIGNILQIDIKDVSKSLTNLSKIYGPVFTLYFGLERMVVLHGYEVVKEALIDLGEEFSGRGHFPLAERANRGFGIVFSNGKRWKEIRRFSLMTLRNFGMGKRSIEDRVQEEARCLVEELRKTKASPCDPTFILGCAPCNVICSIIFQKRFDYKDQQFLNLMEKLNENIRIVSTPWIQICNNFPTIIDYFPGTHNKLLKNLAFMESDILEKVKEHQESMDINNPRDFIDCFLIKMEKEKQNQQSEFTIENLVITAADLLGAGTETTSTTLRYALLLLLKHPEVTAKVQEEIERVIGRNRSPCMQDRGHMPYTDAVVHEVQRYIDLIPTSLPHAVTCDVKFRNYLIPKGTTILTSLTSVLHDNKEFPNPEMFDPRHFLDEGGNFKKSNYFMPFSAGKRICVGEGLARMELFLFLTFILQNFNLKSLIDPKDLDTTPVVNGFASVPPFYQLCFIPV

[8] = target: T2, Corticotropin-releasing factor receptor 2/Corticotropin-releasing factor-binding protein (Homo sapiens, UniProt P24387+Q13324); experiment: Dose Response confirmation of uHTS hits for small molecule antagonists of the CRF-binding protein and CRF-R2 receptor complex.; assay type: functional; conditions: read-out: IC50_Mean
T2 sequence (Q13324 whole entry): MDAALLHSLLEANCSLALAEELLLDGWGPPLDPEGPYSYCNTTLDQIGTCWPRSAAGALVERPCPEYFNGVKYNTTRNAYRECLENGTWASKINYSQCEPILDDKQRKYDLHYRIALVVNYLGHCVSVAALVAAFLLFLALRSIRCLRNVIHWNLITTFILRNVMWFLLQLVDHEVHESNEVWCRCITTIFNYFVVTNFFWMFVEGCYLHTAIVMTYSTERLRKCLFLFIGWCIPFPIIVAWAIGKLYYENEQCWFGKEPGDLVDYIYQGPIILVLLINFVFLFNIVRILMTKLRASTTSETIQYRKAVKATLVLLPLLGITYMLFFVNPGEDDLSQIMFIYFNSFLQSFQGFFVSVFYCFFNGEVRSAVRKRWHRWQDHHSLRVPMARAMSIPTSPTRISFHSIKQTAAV
T2 sequence (P24387 whole entry): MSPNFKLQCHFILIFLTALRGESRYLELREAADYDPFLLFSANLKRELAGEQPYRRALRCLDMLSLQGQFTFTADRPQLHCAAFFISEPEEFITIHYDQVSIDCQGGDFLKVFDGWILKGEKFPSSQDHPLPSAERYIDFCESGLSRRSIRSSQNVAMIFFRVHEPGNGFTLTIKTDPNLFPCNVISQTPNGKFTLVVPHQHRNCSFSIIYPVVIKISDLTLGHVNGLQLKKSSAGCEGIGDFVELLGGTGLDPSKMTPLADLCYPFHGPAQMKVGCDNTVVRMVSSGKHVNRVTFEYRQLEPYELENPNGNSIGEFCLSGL

[9] = target: T2, Corticotropin-releasing factor receptor 2/Corticotropin-releasing factor-binding protein; experiment: activators of CRF receptor 2 with binding protein – uHTS hits, confirmation (AID 602473); assay type: functional; conditions: read-out: EC50_Mean

Structure (SMILES): O=C(OCC(=O)N1CCN(C(=O)c2ccco2)CC1)c1sc2cc(F)ccc2c1Cl
- EC50 [1]: > 195 µM (not active)

Structure (SMILES): CC(C)Cc1nc2n[nH]c(N)c2c2c1COC(C)(C)C2
- EC50 [2]: 38.2 µM (active)
- EC50 [3]: > 120 µM (not active)
- EC50 [4]: 21.4 µM (active)

Structure (SMILES): Fc1ccccc1CCNCc1cccc(Cl)c1Cl
- AC50 [5]: 39.8 µM (inconclusive)

Structure (SMILES): O=C(c1ccc(F)cc1)N1CCCC(N2CCN(Cc3ccc4c(c3)OCO4)CC2)C1 (stereo not given)
- EC50 [1]: > 195 µM (not active)

Structure (SMILES): FC(F)(F)c1cc(Sc2ccccc2)nc(-c2ccccn2)n1
- AC50 [6]: 11.2 µM (inconclusive)
- AC50 [5]: 14.1 µM (inconclusive)

Structure (SMILES): COc1ccc(-n2nc(C(=O)NCC(=O)Nc3ccccn3)c3ccccc3c2=O)cc1
- AC50 ([7]; read-out: AC50): 3.16 µM (inconclusive)
- AC50 [5]: 1.41 µM (inconclusive)

Structure (SMILES): COc1cccc(COC(=O)c2ccc3c(c2)NC(=O)C(C)S3)c1OC (stereo not given)
- EC50 [1]: > 195 µM (not active)

Structure (SMILES): CC(C)(C)OC(=O)COc1cc(O)c2c(=O)cc(-c3ccccc3)oc2c1
- EC50 [1]: > 195 µM (not active)

Structure (SMILES): O=C1OC(N2CCN(C/C=C/c3ccccc3)CC2)c2ccccc21 (stereo not given)
- EC50 [1]: > 195 µM (not active)

Structure (SMILES): O=C(CSCC(=O)Nc1cccc([N+](=O)[O-])c1)Nc1ccccc1
- IC50 [8]: > 47.1 µM (inactive)
- EC50 [9]: > 53 µM (inactive)

Structure (SMILES): N#Cc1nc(-c2ccco2)oc1N1CCN(Cc2ccccc2)CC1
- EC50 [1]: > 195 µM (not active)

Structure (SMILES): Cn1c(SCC(=O)NCc2ccccc2)nc2ccccc21
- EC50 [1]: > 195 µM (not active)

Structure (SMILES): O=C(c1nc2nc(-c3ccc(Cl)cc3)cc(C(F)(F)F)n2n1)N1CCOCC1
- EC50 [2]: 14 µM (active)
- EC50 [3]: 54.3 µM (active)
- EC50 [4]: 15.9 µM (active)

Structure (SMILES): Cc1ccc(NC(=O)NCC(c2cccnc2)N2CCOCC2)cc1 (stereo not given)
- EC50 [1]: > 195 µM (not active)

Structure (SMILES): Oc1ccc2ccccc2c1CN(Cc1c(O)ccc2ccccc12)C1CCCCC1
- AC50 [5]: 7.94 µM (inconclusive)

Structure (SMILES): NS(=O)(=O)c1ccc(CCNC(=O)C2CCCN2C(=O)OCc2ccccc2)cc1 (stereo not given)
- AC50 [7]: inconclusive
- AC50 [5]: 15.8 µM (inconclusive)

Structure (SMILES): CNCC/C=C\c1cccnc1
- AC50 ([7]; read-out: AC50): 20 µM (inconclusive)
- AC50 [6]: 15.8 µM (inconclusive)
- AC50 [5]: 39.8 µM (inconclusive)

Structure (SMILES): CCOC(=O)c1c(CC(C)C)csc1N
- IC50 [8]: > 47.1 µM (inactive)
- EC50 [9]: > 53 µM (inactive)

Structure (SMILES): Cc1ccc(NC(=O)CCC(=O)NNC(=O)c2ccco2)cc1C
- AC50 ([7]; read-out: AC50): 17.8 µM (inconclusive)
- AC50 [5]: 12.6 µM (inconclusive)

Structure (SMILES): COc1ccc(/C=C/c2c([N+](=O)[O-])c(=O)n(C)c(=O)n2C)cc1O
- IC50 [8]: > 47.1 µM (inactive)
- EC50 [9]: > 53 µM (inactive)

Structure (SMILES): CC(=O)Nc1nonc1NC(=O)c1ccc(C(C)(C)C)cc1
- AC50 ([7]; read-out: AC50): 3.55 µM (inconclusive)
- AC50 [5]: 3.55 µM (inconclusive)

Structure (SMILES): Nc1nc(O)c(Br)c(Oc2ccc(F)cc2)n1
- EC50 [1]: 35.4 µM (active)

Structure (SMILES): COC(=O)CCCC1=CC2=C(c3ccccc3)C(=O)C(C)(OC(=O)C3CCCC3)C(=O)C2=CN1CCc1ccccn1 (stereo not given)
- IC50 [8]: > 47.1 µM (inactive)
- EC50 [9]: > 53 µM (inactive)

Structure (SMILES): O=c1[nH][nH]c(=S)c(=O)[nH]1
- AC50 ([7]; read-out: AC50): 2 µM (inconclusive)
- AC50 [5]: 2.51 µM (inconclusive)

Structure (SMILES): C=CCOC(=O)C(C#N)c1nc2ccccc2nc1N1CCN(c2ccccc2OCC)CC1 (stereo not given)
- IC50 [8]: > 47.1 µM (inactive)
- EC50 [9]: > 53 µM (inactive)

Structure (SMILES): COc1ccc(-c2[nH]ncc2CN2CCC(O)(c3ccc(Cl)cc3)CC2)cc1
- EC50 [2]: 18.2 µM (active)
- EC50 [4]: 9.96 µM (active)

Structure (SMILES): CCCn1c(C(C)NS(=O)(=O)c2ccccc2)n[nH]c1=S (stereo not given)
- IC50 [8]: > 47.1 µM (inactive)
- EC50 [9]: > 53 µM (inactive)

Structure (SMILES): COc1cccc(-c2cc(C(F)(F)F)nc(-n3cc(Cl)cn3)n2)c1
- EC50 [2]: > 120 µM (not active)
- EC50 [3]: > 120 µM (not active)
- EC50 [4]: > 120 µM (not active)

Structure (SMILES): CCN1C(c2ccccc2)C(C)C(=O)C(C)C1c1ccccc1 (stereo not given)
- IC50 [8]: > 47.1 µM (inactive)
- EC50 [9]: > 53 µM (inactive)

Structure (SMILES): COc1ccc(NC(=O)CSc2nc(C)cs2)cc1
- EC50 [1]: > 195 µM (not active)

Structure (SMILES): CCn1c(C(=O)NC(C)c2ccc3c(c2)OCCO3)cc2sccc21 (stereo not given)
- EC50 [2]: 14.2 µM (active)
- EC50 [3]: 15.8 µM (active)
- EC50 [4]: 22.5 µM (active)

Structure (SMILES): O=C(C1CC(=O)N(c2ccc(Br)cc2)C1)N1CCCC1 (stereo not given)
- IC50 [8]: > 47.1 µM (inactive)
- EC50 [9]: > 53 µM (inactive)

Structure (SMILES): COc1ccc(-c2nc(CNS(=O)(=O)c3ccc(OC)c(OC)c3)cs2)cc1
- EC50 [1]: > 195 µM (not active)

Structure (SMILES): COc1ccc(NC(=O)C2CCN(C(=O)Nc3ccc(C)cc3)CC2)cc1OC
- EC50 [2]: > 120 µM (not active)
- EC50 [3]: > 120 µM (not active)
- EC50 [4]: > 120 µM (not active)

Structure (SMILES): C=C(C)Cn1c(=O)c2c(nc3n2CC(C)CN3Cc2ccccc2)n(C)c1=O (stereo not given)
- IC50 [8]: > 47.1 µM (inactive)
- EC50 [9]: > 53 µM (inactive)

Structure (SMILES): CCC(=O)Nc1ccc(NC(=O)Cc2ccccc2)cn1
- EC50 [1]: > 195 µM (not active)

Structure (SMILES): Cc1ccc2c(COC(=O)C3=COCCO3)cc(=O)oc2c1
- EC50 [3]: 10.5 µM (active)
- EC50 [4]: 8.1 µM (inconclusive)

Structure (SMILES): O=S(=O)(c1ccc2c(c1)OCCO2)N1CCC(c2nc(O)c3nnn(Cc4ccccc4F)c3n2)CC1
- EC50 [2]: > 120 µM (not active)
- EC50 [3]: > 120 µM (not active)
- EC50 [4]: > 120 µM (not active)

Structure (SMILES): C1=C(c2cccc3ccccc23)N2CCN=C2S1
- EC50 [2]: > 120 µM (not active)
- EC50 [3]: > 120 µM (not active)
- EC50 [4]: > 120 µM (not active)

Structure (SMILES): CCCCc1nc2ccccc2c(NC(=O)CN(CC)CC)c1CCC
- IC50 [8]: > 47.1 µM (inactive)
- EC50 [9]: > 53 µM (inactive)

Structure (SMILES): Fc1ccccc1CNC(=S)Nc1ccc(Cl)cc1
- IC50 [8]: 5.53 µM (active)
- EC50 [9]: > 53 µM (inactive)

Structure (SMILES): CCCCCCCCCSc1nnc(N)[nH]1
- IC50 [8]: > 47.1 µM (inactive)
- EC50 [9]: > 53 µM (inactive)

Structure (SMILES): C=Cn1cc[n+](CC(=O)c2ccc(Cl)cc2)c1
- IC50 [8]: > 47.1 µM (inactive)
- EC50 [9]: > 53 µM (inactive)

Structure (SMILES): O=C(N/N=C/c1cccnc1)c1ccc2c(c1)OCCO2
- EC50 [1]: > 195 µM (not active)

Structure (SMILES): O=C(OCc1cc(=O)n2ccsc2n1)C1(c2ccccc2)CC1
- IC50 [8]: > 47.1 µM (inactive)
- EC50 [9]: > 53 µM (inactive)

Structure (SMILES): O=C(N/N=C/c1cc([N+](=O)[O-])ccc1Cl)c1cnccn1
- EC50 [2]: > 120 µM (not active)
- EC50 [3]: 9.8 µM (active)
- EC50 [4]: > 120 µM (not active)

Structure (SMILES): CCOC(=O)c1ccc(NC(=O)NS(=O)(=O)c2ccc(C)cc2)cc1
- EC50 [1]: > 195 µM (not active)

Structure (SMILES): Nc1nc(OCc2ccccc2)c2[nH]cnc2n1 [6-O-BENZYLGUANINE]
- AC50 [6]: 0.501 µM (inconclusive)
- AC50 [5]: 39.8 µM (inconclusive)

Structure (SMILES): CC(C)[C@H](CO)Nc1nc(Nc2cccc(Cl)c2)c2ncn(C(C)C)c2n1 [PURVALANOLA]
- AC50 [5]: 39.8 µM (inconclusive)
